Measured values as given in patent US8071797B2 (priority 2008, dated 2011).

Assays:
[1] = target: T1, HCV polymerase (NS5B570n-Con1) (Hepatitis C virus genotype 1b, UniProt Q9WMX2); experiment: HCV NS5B RNA polymerase activity assay; format: biochemical, HCV Con1 strain; conditions: IC50 NS5B polymerase assay, Table I
T1 construct: contains a 21 amino acid deletion at the C-terminus relative to the full-length HCV polymerase; 6-histidine (N); made in house; host or cells: E. coli BL21 (DE) pLysS
Method: The enzymatic activity of HCV polymerase (NS5B570n-Con1) was measured as the incorporation of radiolabeled nucleotide monophosphates into acid insoluble RNA products. Unincorporated radiolabeled substrate was removed by filtration and scintillant was added to the washed and dried filter plate containing radiolabeled RNA product. The amount of RNA product generated by NS5B570-Con1 at the end of the reaction was directly proportional to the amount of light emitted by the scintillant.
The N-terminal 6-histidine tagged HCV polymerase, derived from HCV Con1 strain, genotype 1b (NS5B570n-Con1) contains a 21 amino acid deletion at the C-terminus relative to the full-length HCV polymerase and was purified from E. coli strain BL21 (DE) pLysS. The construct, containing the coding sequence of HCV NS5B Con1 (GenBank accession number AJ242654) was inserted into the plasmid construct pETI 7b, downstream of a T7 promoter expression cassette and transformed into E. coli. A single colony was grown overnight as a starter culture and later used inoculate 10 L of LB media supplemented with 100 μg/mL ampicillin at 37° C. Protein expression was induced by the addition of 0.25 mM isopropyl-β-D-thiogalactopyranoside (IPTG) when optical density at […] of the culture was between 0.6 and 0.8 and cells were harvested after 16 to 18 h at 30° C. NS5B570n-Con1 was purified to homogeneity using a three-step protocol including subsequent column chromatography on Ni-NTA, SP-Sepharose HP and Superdex 75 resins.
Each 50 μl enzymatic reaction contained 20 nM RNA template derived from the complementary sequence of the Internal Ribosome Entry Site (cIRES), 20 nM NS5B570n-Con1 enzyme, 0.5 μCi of tritiated UTP (Perkin Elmer catalog no. TRK-412; specific activity: 30 to 60 Ci/mmol; stock solution concentration from 7.5×10^-5 M to 20.6×10^-6 M), 1 μM each ATP, CTP, and GTP, 40 mM Tris-HCl pH 8.0, 40 mM NaCl, 4 mM DTT (dithiothreitol), 4 mM MgCl2, and 5 μl of compound serial diluted in DMSO. Reaction mixtures were assembled in 96-well filter plates (cat #MADVN0B, Millipore Co.) and incubated for 2 h at 30° C. Reactions were stopped by addition of 10% final (v/v) trichloroacetic acid and incubated for 40 min at 4° C. Reactions were filtered, washed with 8 reaction volumes of 10% (v/v) trichloroacetic acetic acid, 4 reaction volumes of 70% (v/v) ethanol, air dried, and 25 μl of scintillant (Microscint 20, Perkin-Elmer) was added to each reaction well.
The amount of light emitted from the scintillant was converted to counts per minute (CPM) on a Topcount® plate reader (Perkin-Elmer, Energy Range: Low, Efficiency Mode Normal, Count Time: 1 min, Background Subtract: none, Cross talk reduction: Off).
Data was analyzed in Excel® (Microsoft®) and ActivityBase® (idbsg). The reaction in the absence of enzyme was used to determine the background signal, which was subtracted from the enzymatic reactions. Positive control reactions were performed in the absence of compound, from which the background corrected activity was set as 100% polymerase activity. All data was expressed as a percentage of the positive control. The compound concentration at which the enzyme-catalyzed rate of RNA synthesis was reduced by 50% (IC50) was calculated by fitting
[formula] equation (t) to the data.where “Y” corresponds to the relative enzyme activity (in %), “% Min” is the residual relative activity at saturating compound concentration, “% Max” is the relative maximum enzymatic activity, “X” corresponds to the compound concentration, and “S” is the Hill coefficient (or slope).

For CNC(=O)c1c(-c2ccc(Nc3ccc(C(C)C)cc3)cc2)oc2cc(N(CCO)S(C)(=O)=O)c(OC)cc12 [Compound I-6], which melting point is on record?
The melting point was 223.9 to 234.5 °C.

What about the IC50 [1] of the same molecule?
The IC50 was 544 nM.

For CNC(=O)c1c(-c2ccc(Oc3ccc(F)cc3)cc2)oc2cc(N(CCO)S(C)(=O)=O)c(C3CC3)cc12 [Compound I-32, 5-Cyclopropyl-2-[4-(4-fluoro-phenoxy)-phenyl]-6-[(2-hydroxy-ethyl)-methanesulfonyl-amino]-benzofuran-3-carboxylic acid methylamide], which melting point is on record?
Its melting point is 110 to 115 °C.

What about the IC50 [1] of the same molecule?
Its IC50 is 60 nM.

Which results are given for CNC(=O)c1c(-c2ccc(Oc3ccccc3)cc2)oc2cc(N(CCO)S(C)(=O)=O)c(C3CC3)cc12 [Compound I-33]?
melting point: 110 to 115 °C; IC50 [1]: 21 nM

With CNC(=O)c1c(-c2ccc(Oc3ccc(F)cc3)cc2)oc2cc(NS(C)(=O)=O)c(C3CC3)cc12 [Compound I-40] as the molecule, how does the melting point read?
The melting point was 169 to 170 °C.

What about the IC50 [1] of the same molecule?
The IC50 was 98 nM.

For CNC(=O)c1c(-c2ccc(Oc3ccc(F)cc3)cc2)oc2cc(N(CCO)S(C)(=O)=O)ccc12 [Compound I-64, 2-[4-(4-Fluoro-phenoxy)-phenyl]-6-[(2-hydroxy-ethyl)-methanesulfonyl-amino]-benzofuran-3-carboxylic acid methylamide], which melting point is on record?
The melting point was 214.6 to 215.7 °C.

What about the IC50 [1] of the same molecule?
The IC50 was 415 nM.

Which melting point does the source give for CNC(=O)c1c(-c2ccc(Oc3ccc(F)cc3)cc2)oc2cc(N(CCN)S(C)(=O)=O)c(C3CC3)cc12.Cl [Compound I-74] here?
Its melting point is 223 to 224 °C.

And the IC50 [1]?
The IC50 was 83 nM.

With CNC(=O)c1c(-c2ccc(Oc3ccccc3)cc2)oc2cc(N3CCOCC3)c(C3CC3)cc12 [Compound I-77] as the molecule, how does the melting point read?
Its melting point is 223.4 to 223.9 °C.

What about the IC50 [1] of the same molecule?
Its IC50 is 672 nM.

Which melting point does the source give for CNC(=O)c1c(-c2ccc(Oc3ccccc3)cc2)oc2cc(N3CCCS3(=O)=O)c(C3CC3)cc12 [Compound I-82, 5-Cyclopropyl-6-(1,1-dioxo-1λ^6-isothiazolidin-2-yl)-2-(4-phenoxy-phenyl)-benzofuran-3-carboxylic acid methylamide] here?
The melting point was 174 to 176 °C.

And the IC50 [1]?
Its IC50 is 66 nM.

With CNC(=O)c1c(-c2ccc(Oc3ccc(F)cc3)cc2)oc2cc(N([C@H]3CC[C@H](O)CC3)S(C)(=O)=O)c(C3CC3)cc12 [Compound I-100] as the molecule, how does the IC50 [1] read?
The IC50 was 25 nM.

For CNC(=O)c1c(-c2ccc(Oc3ccccc3)cc2)oc2cc(-c3c(C)n[nH]c3C)c(C3CC3)cc12 [Compound I-101], which IC50 [1] is on record?
Its IC50 is 318 nM.

With CNC(=O)c1c(-c2ccc(Oc3ccc(F)cc3)cc2)oc2cc(C(C)(C)O)c(OC)cc12 [Compound I-103] as the molecule, how does the IC50 [1] read?
The IC50 was 37 nM.

With CNC(=O)c1c(-c2ccc(Oc3ccc(F)cc3)cc2)oc2cc(N(CCCO)S(C)(=O)=O)c(C3CC3)cc12 [Compound I-106] as the molecule, how does the IC50 [1] read?
The IC50 was 18 nM.

Which IC50 [1] does the source give for CNC(=O)c1c(-c2ccc(Oc3ccc(F)cc3)cc2)oc2cc(N(CC3COC(=O)N3)S(C)(=O)=O)c(C3CC3)cc12 (centres unmarked) [Compound I-108] here?
Its IC50 is 26 nM.

For CNC(=O)c1c(-c2ccc(Oc3ccc(F)cc3)cc2)oc2cc(C3CCCN3C(C)=O)c(OC)cc12 (centres unmarked) [Compound I-109, 6-(1-acetyl-pyrrolidin-2-yl)-2-[4-(4-fluoro-phenoxy)-phenyl]-5-methoxy-benzofuran-3-carboxylic acid methylamide], which IC50 [1] is on record?
The IC50 was 44 nM.

For CNC(=O)c1c(-c2ccc(Oc3ccc(F)cc3)cc2)oc2cc(C(C)(C)O)c(C3CC3)cc12 [Compound I-110, 5-Cyclopropyl-2-[4-(4-fluoro-phenoxy)-phenyl]-6-(1-hydroxy-1-methyl-ethyl)-benzofuran-3-carboxylic acid methylamide], which IC50 [1] is on record?
Its IC50 is 39 nM.

For CNC(=O)c1c(-c2ccc(Oc3ccc(F)cc3)cc2)oc2cc(C3CCCN3)c(OC)cc12 (centres unmarked) [Compound I-111, 2-[4-(4-Fluoro-phenoxy)-phenyl]-5-methoxy-6-pyrrolidin-2-yl-benzofuran-3-carboxylic acid methylamide], which IC50 [1] is on record?
The IC50 was 933 nM.

For CNC(=O)c1c(-c2ccc(Oc3ccc(F)cc3)cc2)oc2cc(C3CCCN3S(C)(=O)=O)c(OC)cc12 (centres unmarked) [Compound I-112, 2-[4-(4-Fluoro-phenoxy)-phenyl]-6-(1-methanesulfonyl-pyrrolidin-2-yl)-5-methoxy-benzofuran-3-carboxylic acid methylamide], which IC50 [1] is on record?
Its IC50 is 349 nM.

Which IC50 [1] does the source give for CNC(=O)c1c(-c2ccc(Oc3ccc(F)cc3)cc2)oc2cc(N(CCCSC)S(C)(=O)=O)c(C3CC3)cc12 [Compound I-113] here?
Its IC50 is 18 nM.

For CNC(=O)c1c(-c2ccc(Oc3ccc(F)cc3)cc2)oc2cc(N(CCCS(C)(=O)=O)S(C)(=O)=O)c(C3CC3)cc12 [Compound I-114], which IC50 [1] is on record?
The IC50 was 21 nM.

Which IC50 [1] does the source give for CNC(=O)c1c(-c2ccc(Oc3ccc(F)cc3)cc2)oc2cc(N(CC(F)(F)CN)S(C)(=O)=O)c(C3CC3)cc12 [Compound I-115, 6-[(3-Amino-2,2-difluoro-propyl)-methanesulfonyl-amino]-5-cyclopropyl-2-[4-(4-fluoro-phenoxy)-phenyl]-benzofuran-3-carboxylic acid methylamide] here?
Its IC50 is 29 nM.

With CNC(=O)c1c(-c2ccc(Oc3ccc(F)cc3)cc2)oc2cc(N(CCCN(C)S(C)(=O)=O)S(C)(=O)=O)c(C3CC3)cc12 [Compound I-117] as the molecule, how does the IC50 [1] read?
Its IC50 is 11 nM.

Which IC50 [1] does the source give for CNC(=O)c1c(-c2ccc(Oc3ccc(F)cc3)cc2)oc2cc(N(CCCS(N)(=O)=O)S(C)(=O)=O)c(C3CC3)cc12 [Compound I-118] here?
Its IC50 is 7 nM.

Which IC50 [1] does the source give for CNC(=O)c1c(-c2ccc(Oc3ccc(F)cc3)cc2)oc2cc(N(CCS(N)(=O)=O)S(C)(=O)=O)c(C3CC3)cc12 [Compound I-119, 5-Cyclopropyl-2-[4-(4-fluoro-phenoxy)-phenyl]-6-[methanesulfonyl-(2-sulfamoyl-ethyl)-amino]-benzofuran-3-carboxylic acid methylamide] here?
Its IC50 is 14 nM.

For CNC(=O)c1c(-c2ccc(Oc3ccc(F)cc3)cc2)oc2cc(N(CC[S+](C)[O-])S(C)(=O)=O)c(C3CC3)cc12 (centres unmarked) [Compound I-120, 5-Cyclopropyl-2-[4-(4-fluoro-phenoxy)-phenyl]-6-[(2-methanesulfinyl-ethyl)-methanesulfonyl-amino]-benzofuran-3-carboxylic acid methylamide], which IC50 [1] is on record?
Its IC50 is 19 nM.

Which IC50 [1] does the source give for CNC(=O)c1c(-c2ccc(Oc3ccc(F)cc3)cc2)oc2cc(N(CCC[S+](C)[O-])S(C)(=O)=O)c(C3CC3)cc12 (centres unmarked) [Compound I-121] here?
Its IC50 is 5 nM.

With CNC(=O)c1c(-c2ccc(Nc3cccnc3)cc2)oc2cc(N(CCO)S(C)(=O)=O)c(OC)cc12 [Compound I-122] as the molecule, how does the IC50 [1] read?
Its IC50 is 2050 nM.

Which IC50 [1] does the source give for CNC(=O)c1c(-c2ccc(Nc3ccc(F)cn3)cc2)oc2cc(N(CCO)S(C)(=O)=O)c(OC)cc12 [Compound I-124] here?
Its IC50 is 195 nM.

For CNC(=O)c1c(-c2ccc(Oc3ccc(F)cc3)nc2)oc2cc(N(CCO)S(C)(=O)=O)c(OC)cc12 [Compound I-125, 2-[6-(4-Fluoro-phenoxy)-pyridin-3-yl]-6-[(2-hydroxy-ethyl)-methanesulfonyl-amino]-5-methoxy-benzofuran-3-carboxylic acid methylamide], which IC50 [1] is on record?
Its IC50 is 490 nM.

With CNC(=O)c1c(-c2ccc(Nc3ccc(F)cc3)nc2)oc2cc(N(CCO)S(C)(=O)=O)c(OC)cc12 [Compound I-126, 2-[6-(4-Fluoro-phenylamino)-pyridin-3-yl]-6-[(2-hydroxy-ethyl)-methanesulfonyl-amino]-5-methoxy-benzofuran-3-carboxylic acid methylamide] as the molecule, how does the IC50 [1] read?
The IC50 was 468 nM.

For CNC(=O)c1c(-c2ccc(Oc3ccccn3)cc2)oc2cc(N(CCO)S(C)(=O)=O)c(OC)cc12 [Compound I-127, 6-[(2-Hydroxy-ethyl)-methanesulfonyl-amino]-5-methoxy-2-[4-(pyridin-2-yloxy)-phenyl]-benzofuran-3-carboxylic acid methylamide], which IC50 [1] is on record?
Its IC50 is 611 nM.
